Assay results: ChEMBL document CHEMBL1141727, “Isolation and cytotoxic evaluation of marine sponge-derived norterpene peroxides” (J Nat Prod, 1998)

Legend:
[1] = Growth inhibition of human Hs 578T cells; format: functional
UACC-257 = experiment: Growth inhibition of human UACC257 cells; format: functional
CCRF-CEM = experiment: Growth inhibition of human CCRF-CEM cells; format: functional
[2] = Growth inhibition of human MCF7/ADR resistant cells; format: functional; settings: NCI/ADR-RES
OVCAR-3 = experiment: Growth inhibition of human OVCAR-3 cells; format: functional
SK-OV-3 = experiment: Growth inhibition of human SKOV3 cells; format: functional
EKVX = experiment: Growth inhibition of human EKVX cells; format: functional
A498 = experiment: Growth inhibition of human A498 cells; format: functional
SF-539 = experiment: Growth inhibition of human SF539 cells; format: functional
HCT-116 = experiment: Growth inhibition of human HCT116 cells; format: functional
A549 = experiment: Growth inhibition of human A549 cells; format: functional
HL-60(TB) = experiment: Growth inhibition of human HL-60(TB) cells; format: functional
MDA-MB-231 = experiment: Growth inhibition of human MDA-MB-231 cells; format: functional
T47D = experiment: Growth inhibition of human T47D cells; format: functional
OVCAR-8 = experiment: Growth inhibition of human OVCAR8 cells; format: functional
MDA-N = experiment: Growth inhibition of human MDA-N cells; format: functional
OVCAR-5 = experiment: Growth inhibition of human OVCAR5 cells; format: functional
NCI-H226 = experiment: Growth inhibition of human NCI-H226 cells; format: functional
CAKI-1 = experiment: Growth inhibition of human Caki1 cells; format: functional
COLO 205 = experiment: Growth inhibition of human COLO205 cells; format: functional
SF-295 = experiment: Growth inhibition of human SF295 cells; format: functional
PC-3 = experiment: Growth inhibition of human PC3 cells; format: functional
HOP-62 = experiment: Growth inhibition of human HOP62 cells; format: functional
NCI-H522 = experiment: Growth inhibition of human NCI-H522 cells; format: functional
SR = experiment: Growth inhibition of human SR cells; format: functional
Malme-3M = experiment: Growth inhibition of human MALME-3M cells; format: functional
SN12C = experiment: Growth inhibition of human SN12C cells; format: functional
TK-10 = experiment: Growth inhibition of human TK10 cells; format: functional
NCI-H23 = experiment: Growth inhibition of human NCI-H23 cells; format: functional
MC-38 = experiment: Growth inhibition of mouse C38 cells assessed as zone units at 50 ug/disk by disk diffusion agar colony formation assay; format: functional
HCT-15 = experiment: Growth inhibition of human HCT15 cells; format: functional
NCI-H460 = experiment: Growth inhibition of human NCI-H460 cells; format: functional
NCI-H322M = experiment: Growth inhibition of human NCI-H322M cells; format: functional
ACHN = experiment: Growth inhibition of human ACHN cells; format: functional
SK-MEL-28 = experiment: Growth inhibition of human SK-MEL-28 cells; format: functional
[3] = Growth inhibition of mouse M17/ADR cells assessed as zone units at 50 ug/disk by disk diffusion agar colony formation assay; format: functional
MCF7 = experiment: Growth inhibition of human MCF7 cells; format: functional
UACC-62 = experiment: Growth inhibition of human UACC62 cells; format: functional
SK-MEL-5 = experiment: Growth inhibition of human SK-MEL-5 cells; format: functional
HOP-92 = experiment: Growth inhibition of human HOP92 cells; format: functional
RXF 393 = experiment: Growth inhibition of human […] cells; format: functional
[4] = Growth inhibition of human […] cells; format: functional
SNB-75 = experiment: Growth inhibition of human SNB75 cells; format: functional
HCC 2998 = experiment: Growth inhibition of human HCC2998 cells; format: functional
OVCAR-4 = experiment: Growth inhibition of human OVCAR4 cells; format: functional
786-0 = experiment: Growth inhibition of human 786-0 cells; format: functional
M14 = experiment: Growth inhibition of human M14 cells; format: functional
IGROV-1 = experiment: Growth inhibition of human IGROV1 cells; format: functional
U-251 = experiment: Growth inhibition of human U251 cells; format: functional
HT-29 = experiment: Growth inhibition of human HT-29 cells; format: functional
SW-620 = experiment: Growth inhibition of human SW620 cells; format: functional
MOLT-4 = experiment: Growth inhibition of human MOLT4 cells; format: functional
MDA-MB-435 = experiment: Growth inhibition of human MDA-MB-435 cells; format: functional
L1210 = experiment: Growth inhibition of mouse L1210 cells assessed as zone units at 50 ug/disk by disk diffusion agar colony formation assay; format: functional
[5] = Growth inhibition of human H125 cells assessed as zone units at 50 ug/disk by disk diffusion agar colony formation assay; format: functional
SF-268 = experiment: Growth inhibition of human SF268 cells; format: functional
BT-549 = experiment: Growth inhibition of human BT549 cells; format: functional
LOX IMVI = experiment: Growth inhibition of human LOXIMVI cells; format: functional
SK-MEL-2 = experiment: Growth inhibition of human SK-MEL-2 cells; format: functional
KM12 = experiment: Growth inhibition of human KM12 cells; format: functional
DU-145 = experiment: Growth inhibition of human DU145 cells; format: functional
SNB-19 = experiment: Growth inhibition of human SNB19 cells; format: functional
K562 = experiment: Growth inhibition of human K562 cells; format: functional
UO-31 = experiment: Growth inhibition of human UO31 cells; format: functional
P388 = experiment: Growth inhibition of mouse P388 cells assessed as zone units at 50 ug/disk by disk diffusion agar colony formation assay; format: functional
CX-1 = experiment: Growth inhibition of human CX-1 cells assessed as zone units at 50 ug/disk by disk diffusion agar colony formation assay; format: functional
Mus musculus = experiment: Toxicity in mouse at 424 mg/kg, iv in split dose; format: organism-based; parameters: dose 424 mg/kg, route intravenous; settings: in vivo

C=C1CCCC(C)(C)C1CC[C@]1(C)CC[C@H]([C@@H](C)C(=O)OC)OO1 (some centres undefined) [NUAPAPUIN B]
GI50 [1]: 4.6 µM
GI50 (UACC-257): 16.3 µM
GI50 (CCRF-CEM): 1.27 µM
GI50 [2]: 5.67 µM
GI50 (OVCAR-3): 21.8 µM
GI50 (SK-OV-3): 4.4 µM
GI50 (EKVX): 7.9 µM
GI50 (A498): 4.92 µM
GI50 (SF-539): 6.25 µM
GI50 (HCT-116): 8.14 µM
GI50 (A549): 0.64 µM
GI50 (HL-60(TB)): 1.6 µM
GI50 (MDA-MB-231): 757 µM
GI50 (T47D): 2.94 µM
GI50 (OVCAR-8): 5.76 µM
GI50 (MDA-N): 3.54 µM
GI50 (OVCAR-5): 4.76 µM
GI50 (NCI-H226): 6.17 µM
GI50 (CAKI-1): 0.32 µM
GI50 (COLO 205): 4.54 µM
GI50 (SF-295): 4.42 µM
GI50 (PC-3): 3.63 µM
GI50 (HOP-62): 0.71 µM
GI50 (NCI-H522): 3.05 µM
GI50 (SR): 2.17 µM
GI50 (Malme-3M): 21 µM
GI50 (SN12C): 3.73 µM
GI50 (TK-10): 4.21 µM
GI50 (NCI-H23): 3.54 µM
Activity (MC-38): 300 Zone units
GI50 (HCT-15): 13.1 µM
GI50 (NCI-H460): 0.91 µM
GI50 (NCI-H322M): 6.9 µM
GI50 (ACHN): 0.48 µM
GI50 (SK-MEL-28): 20.6 µM
Activity [3]: 100 Zone units
GI50 (MCF7): 18.4 µM
GI50 (UACC-62): 4.13 µM
GI50 (SK-MEL-5): 3.94 µM
GI50 (HOP-92): 0.76 µM
GI50 (RXF 393): 2.62 µM
GI50 [4]: 4.04 µM
GI50 (SNB-75): 2.67 µM
GI50 (HCC 2998): 3.68 µM
GI50 (OVCAR-4): 4.01 µM
GI50 (786-0): 0.27 µM
GI50 (M14): 6.43 µM
GI50 (IGROV-1): 0.5 µM
GI50 (U-251): 2.91 µM
GI50 (HT-29): 0.38 µM
GI50 (SW-620): 7.53 µM
GI50 (MOLT-4): 7.04 µM
GI50 (MDA-MB-435): 4.34 µM
Activity (L1210): 180 Zone units
Activity [5]: 200 Zone units
GI50 (SF-268): 3.19 µM
GI50 (BT-549): 4.95 µM
GI50 (LOX IMVI): 0.47 µM
GI50 (SK-MEL-2): 8.28 µM
GI50 (KM12): 0.4 µM
GI50 (DU-145): 3.67 µM
GI50 (SNB-19): 5.47 µM
GI50 (K562): 6.38 µM
GI50 (UO-31): 0.52 µM
Activity (P388): 180 Zone units

COC(=O)[C@H](C)[C@H]1CC[C@@](C)(CCC2=C(C)CCCC2(C)C)OO1 [NUAPAPUIN A METHYL ESTER]
GI50 [1]: > 25 µM
GI50 (UACC-257): > 25 µM
GI50 (CCRF-CEM): 19.4 µM
GI50 [2]: > 25 µM
GI50 (OVCAR-3): > 25 µM
GI50 (SK-OV-3): > 25 µM
GI50 (EKVX): > 25 µM
Activity (CX-1): 310 Zone units
GI50 (SF-539): > 25 µM
GI50 (HCT-116): > 25 µM
GI50 (A549): > 5 µM
GI50 (HL-60(TB)): > 5 µM
GI50 (MDA-MB-231): > 25 µM
GI50 (T47D): > 25 µM
GI50 (OVCAR-8): > 25 µM
GI50 (MDA-N): > 25 µM
GI50 (OVCAR-5): > 25 µM
GI50 (CAKI-1): > 25 µM
GI50 (COLO 205): > 25 µM
GI50 (SF-295): > 25 µM
GI50 (PC-3): > 25 µM
GI50 (HOP-62): > 25 µM
GI50 (NCI-H522): > 16.1 µM
GI50 (SR): > 25 µM
GI50 (Malme-3M): > 25 µM
GI50 (SN12C): > 25 µM
GI50 (TK-10): > 25 µM
GI50 (NCI-H23): > 25 µM
Activity (MC-38): 700 Zone units
GI50 (HCT-15): > 25 µM
GI50 (NCI-H460): > 25 µM
GI50 (NCI-H322M): > 25 µM
GI50 (ACHN): 25 µM
GI50 (SK-MEL-28): > 25 µM
Activity [3]: 400 Zone units
GI50 (MCF7): > 25 µM
GI50 (UACC-62): > 25 µM
GI50 (SK-MEL-5): > 25 µM
GI50 (HOP-92): > 25 µM
GI50 (RXF 393): > 25 µM
GI50 [4]: > 25 µM
GI50 (SNB-75): > 25 µM
GI50 (HCC 2998): > 25 µM
GI50 (OVCAR-4): > 25 µM
GI50 (786-0): > 25 µM
GI50 (M14): > 25 µM
GI50 (IGROV-1): > 5 µM
GI50 (U-251): > 25 µM
GI50 (HT-29): > 25 µM
GI50 (SW-620): > 25 µM
GI50 (MOLT-4): > 5 µM
GI50 (MDA-MB-435): > 25 µM
Activity (Mus musculus): Non-toxic
Activity (L1210): 400 Zone units
GI50 (SF-268): > 25 µM
GI50 (BT-549): > 5 µM
GI50 (LOX IMVI): > 5 µM
GI50 (SK-MEL-2): > 25 µM
GI50 (KM12): > 5 µM
GI50 (DU-145): > 25 µM
GI50 (SNB-19): > 25 µM
GI50 (K562): 14.3 µM
GI50 (UO-31): > 23.7 µM
Activity (P388): 400 Zone units
